In patent US10987429B2, “Inhibitor of ATP-dependent cellular reverse transporters and method for producing same” (AO “TATKHIMFARMPREPARATY”, priority 2016, dated 2021):
Counter-ions that a name gives are not always drawn.

Key:
Format in all cases: cell-based, human
MCF-7/Vin cells = assay: Microviscosity of plasma membranes, DPHT fluorescence polarization; conditions: OEP inhibitor 8.7, 87, 870 μg/ml, doxorubicin 1 μM, cholesterol 100 μg/ml, Triton X-100 0.05%, 1 hour
Source text: (§1) A key physico-chemical characteristic of cell membranes that affects their physiological activity is microviscosity, a measure of lipid mobility in the bilayer, which plays an important role in membrane permeability and the functioning of membrane proteins. To assess the plasmalemma microviscosity, a fluorescent method is used, based on the use of a lipophilic indicator of diphenylhexatriene (DPHT), whose fluorescence depends on the cell membrane fluidity.
(§2) Cell suspension with a density of 2×10^6 cells/ml was incubated with DPHT at a final concentration of 1 μM for 30 minutes. Next, aliquots (10 μl) of OEP inhibitor solutions were added to the cell suspension using a multichannel dispenser to a final concentration of 8.7; 87 and 870 μg/ml, as well as doxorubicin at a concentration of 1 μM and its composition with an OEP inhibitor (DOX 1 μM+OEP inhibitor 8.7 μg/ml; DOX 1 μM+OEP inhibitor 87 μg/ml). […] Immediately after introducing aliquots of samples, the fluorescence polarization of DPHT was detected for 1 hour with an interval of 10 minutes.

MCF-7 cells = assay: as above; conditions: OEP inhibitor 8.7, 87, 870 μg/ml, doxorubicin 1 μM, cholesterol 100 μg/ml, Triton X-100 0.05%, 1 hour
Source text: as §1, §2

P-gp (ABCB1) = assay: Immunoblotting of P-gp (ABCB1) expression in MCF-7 cells; conditions: 48 hours, doxorubicin 3 μM, OEP inhibitor 261 μg/ml, composition 3 μM: 261 μg/ml
Method: MCF-7, MCF-7-ABCC1-DsRed (with over-expression of MRP-1), MCF-7-ABCC2-BFP (with over-expression of MRP-2), MCF-7-ABCB1-GFP (with P-gp over-expression) cells in concentrations of 3×10^4 cells/cm^2 were cultured in complete DMEM nutrient medium with either doxorubicin added to a final concentration of 3 μM; or an OEP inhibitor to a final concentration of 261 μg/ml; or doxorubicin-OEP inhibitor compositions to a final concentration of 3 μM: 261 μg/ml for 48 hours at 37° C. in the atmosphere of 5% CO2. An adapted and modified ABCAM protocol (http://www.abcam.com/ps/pdf/protocols/wb-beginner.pdf) was used to study proteins by immunoblotting (Western Blot). Monoclonal antibodies to ABCB1 (Cat. No. sc-13131, Santa Cruz) were used at a dilution of 1:200. Anti-mouse antibodies conjugated with HRP—(Cat. No ab6728, Abcam) at a dilution of 1:10,000 were used as secondary. Monoclonal antibodies to β-actin (Cat. No. mAbcam 8226, Abcam) were used at a dilution of 1:2000. The results of the analysis were visualized on ChemiDoc XRS+system (Bio-Rad).

| Compound | polarization of the fluorescence of DPHT (membrane microviscosity) (MCF-7/Vin cells) | polarization of the fluorescence of DPHT (membrane microviscosity) (MCF-7 cells) | active glycosylated 190 kDa form of ABCB1, immunoblotting (P-gp (ABCB1)) |
| --- | --- | --- | --- |
| CC(C)CCC[C@@H](C)[C@H]1CC[C@H]2[C@@H]3CC=C4C[C@@H](O)CC[C@]4(C)[C@H]3CC[C@]12C [Cholesterol, cholesterol] | significantly increased | significantly increased | – |
| COc1cccc2c1C(=O)c1c(O)c3c(c(O)c1C2=O)C[C@@](O)(C(=O)CO)C[C@@H]3O[C@H]1C[C@H](N)[C@H](O)[C@H](C)O1 [doxorubicin, Doxorubicin (DOX) hydrochloride] | did not significantly change | did not significantly change | increases the amount of the active form |
| Triton X-100 | significant decrease | significant decrease | – |
